For eight compounds, melting point results are on record in patent US7151109B2, “Pyrazolo[1,5-a]pyridine derivatives and their use as neurotransmitter modulators” (Pharmacia & Upjohn Company LLC, priority 2002, dated 2006).

Usually melting point stands for the temperature, or range, at which the solid turns liquid. As for `CCCN(CCC)c1c(CC)nn2c(-c3ccc(Cl)cc3Cl)cccc12.O=C(O)/C=C\C(=O)O` [Example 11, 7-(2,4-Dichlorophenyl)-2-ethyl-N,N-dipropylpyrazolo[1,5-a]pyridin-3-amine maleic acid salt], the melting point was in the range of 106 to 112 °C.

`CCCN(CCC)c1c(CC)nn2c(-c3ccc(OC)cc3C)cccc12` [Example 12, 2-Ethyl-7-(4-methoxy-2-methylphenyl)-N,N-dipropylpyrazolo[1,5-a]pyridin-3-amine] returned a melting point of 76 to 79 °C.

`CCCN(CCC)c1c(CC)nn2c(-c3ccc(OC)cc3Cl)cccc12` [Example 13, 7-(2-Chloro-4-methoxyphenyl)-2-ethyl-N,N-dipropylpyrazolo[1,5-a]pyridin-3-amine]: the melting point lay in the range of 73.6 to 76 °C.

`CCCN(CCC)c1c(CC)nn2c(-c3ccc(N(C)C)cc3C(F)(F)F)cccc12` [Example 14, 7-[4-(Dimethylamino)-2-(trifluoromethyl)phenyl]-2-ethyl-N,N-dipropylpyrazolo[1,5-a]pyridin-3-amine]: the melting point was in the range of 69.1 to 79.8 °C.

With `CCCN(CCC)c1c(CC)nn2c(-c3ccc(N(C)C)cc3Cl)cccc12` [Example 16, 7-[2-Chloro-4-(dimethylamino)phenyl]-2-ethyl-N,N-dipropylpyrazolo[1,5-a]pyridin-3-amine], the melting point lay in the range of 132.8 to 134.3 °C.

Take `CCCN(CCC)c1c(CC)nn2c(-c3cnc(N(C)C)cc3C)cccc12` [Example 18, 7-[6-(Dimethylamino)-4-methylpyridin-3-yl]-2-ethyl-N,N-dipropylpyrazolo[1,5-a]pyridin-3-amine]: the melting point was 98.5 to 100.3 °C.

The compound `CCc1nn2c(-c3ccc(OC)cc3Cl)cccc2c1N(CCF)CCOC` [Example 25, 7-(2-Chloro-4-methoxyphenyl)-2-ethyl-N-(2-fluoroethyl)-N-(2-methoxyethyl)pyrazolo[1,5-a]pyridin-3-amine] had a melting point of 45.8 to 52.8 °C.

Consider `COc1ccc(-c2cccc3c(C(C)C)c(C)nn23)c(Cl)c1` [Example 40, 7-(2-Chloro-4-methoxyphenyl)-3-isopropyl-2-methylpyrazolo[1,5-a]pyridine], for which the melting point lay within 111.9 to 114.9 °C.
